Columns and labels:
Assay type in all cases: in vivo
[1] = system: corn planthopper (Peregrinus maidis); experiment: Test F: control of corn planthopper through contact and/or systemic means, corn plant (mixtures)
Protocol: (§1) Test compounds or mixtures were formulated using a solution containing 10% acetone, 90% water and 300 ppm X-77™ Spreader Lo-Foam Formula non-ionic surfactant containing alkylarylpolyoxyethylene, free fatty acids, glycols and 2-propanol (Loveland Industries, Inc. Greeley, Colo., USA). The formulated compounds or mixtures were applied in 1 mL of liquid through a SUJ2 atomizer nozzle with ⅛ JJ custom body (Spraying Systems Co. Wheaton, Ill., USA) positioned 1.27 cm (0.5 inches) above the top of each test unit. All experimental compounds in these tests were sprayed at 10 ppm replicated three times. For experimental mixtures in these tests, to obtain the desired mixture concentrations of each compound, twice the desired concentration of each of the two mixture partner compounds were mixed together in equal volumes.
For evaluating control of corn planthopper (Peregrinus maidis) through contact and/or systemic means, each test unit consisted of a small open cylindrical container with a 3- to 4 day-old corn (maize) plant (spike) inside. White sand was added to the top of the soil prior to application. Test mixtures were formulated and sprayed with 3 replications as described for Test A. After spraying, the test units were allowed to dry for 1 hour before they were post-infested with 10 to 20 corn planthoppers (18- to 20-day-old nymphs) by sprinkling them onto the sand with a salt shaker. A black, screened cap was placed on the top of each container. The test units were held for 6 days in a growth chamber at 19-21° C. and 50-70% relative humidity. Dead and total number of corn planthoppers were counted in each test unit to determine percent mortality.

[2] = system: western flower thrips (Frankliniella occidentalis Pergande); experiment: Test G: control of western flower thrips through contact and/or systemic means, bean plant (mixtures)
Protocol: as §1
For evaluating control of the western flower thrips (Frankliniella occidentalis Pergande) through contact and/or systemic means, each test unit consisted of a small open container with a 5- to 7-day-old bean (var. Soleil) plant inside.
Test mixtures were formulated and sprayed with 3 replications as described for Test A. After spraying, the test units were allowed to dry for 1 hour, 22 to 27 adult thrips were added to each unit and then a black, screened cap was placed on top. The test units were held for 7 days at 25° C. and 45-55% relative humidity. The amount of plant damage for each test unit was rated to determine the percent plant protection.

[3] = system: green peach aphid (Myzus persicae); experiment: Test C: control of green peach aphid through contact and/or systemic means, radish plant
Protocol: as §1
For evaluating control of green peach aphid (Myzus persicae) through contact and/or systemic means, the test unit consisted of a small open container with a 12- to 15-day-old radish plant inside. This was pre-infested by placing on a leaf of the test plant 30-40 aphids on a piece of leaf excised from a culture plant (cut-leaf method). The larvae moved onto the test plant as the leaf piece desiccated. After pre-infestation, the soil of the test unit was covered with a layer of sand.
All test compounds were formulated and sprayed at 50 ppm as described for Test A and replicated three times. Test mixtures were formulated as described for Test A and replicated three times. After spraying of the formulated test compound or mixture, each test unit was allowed to dry for 1 hour and then a black, screened cap was placed on top. The test units were held for 6 days in a growth chamber at 19-21° C. and 50-70% relative humidity. Dead and total number of aphids were counted in each test unit to determine percent mortality.

[4] = system: diamondback moth (Plutella xylostella); experiment: Test A: control of diamondback moth, foliar spray on radish plant
Description: For evaluating control of diamondback moth (Plutella xylostella) the test unit consisted of a small open container with a 12-14-day-old radish plant inside. This was pre-infested with 10-15 neonate larvae on a piece of insect diet by use of a core sampler to remove a plug from a sheet of hardened insect diet having many larvae growing on it and transfer the plug containing larvae and diet to the test unit. The larvae moved onto the test plant as the diet plug dried out.
as §1, with “All experimental compounds in these tests were sprayed at 10 ppm replicated three times.” left out
After spraying of the formulated test compound or mixture, each test unit was allowed to dry for 1 hour and then a black, screened cap was placed on top. The test units were held for 6 days in a growth chamber at 25° C. and 70% relative humidity. Plant feeding damage was then visually assessed based on foliage consumed.

## Imidacloprid
[1]; 0.08 ppm
  Mortality (obs): 2%
[1]; 0.2 ppm
  Mortality (obs): 10%
[1]; 0.8 ppm
  Mortality (obs): 71%
[2]; 11 ppm
  % protection (obs): 27%
[2]; 77 ppm
  % protection (obs): 40%
[2]; 250 ppm
  % protection (obs): 90%
[3]; 0.08 ppm
  Mortality (obs): 5%
[3]; 0.15 ppm
  Mortality (obs): 44%
[3]; 0.3 ppm
  Mortality (obs): 50%
[4]; 0.8 ppm
  % protection (obs): 73%
[4]; 17 ppm
  % protection (obs): 80%
[4]; 50 ppm
  % protection (obs): 90%

## Cc1cc(Cl)cc(C(=O)NCC2CC2)c1NC(=O)c1cc(Br)nn1-c1ncccc1Cl [Compound 2]
[1]; 30 ppm
  Mortality (obs): 2%
[1]; 100 ppm
  Mortality (obs): 10%
[1]; 250 ppm
  Mortality (obs): 31%
[2]; 5 ppm
  % protection (obs): 20%
[2]; 150 ppm
  % protection (obs): 27%
[2]; 250 ppm
  % protection (obs): 53%
[3]; 8 ppm
  Mortality (obs): 4%
[3]; 50 ppm
  Mortality (obs): 17%
[3]; 250 ppm
  Mortality (obs): 76%
[4]; 0.03 ppm
  % protection (obs): 37%
[4]; 0.04 ppm
  % protection (obs): 77%
[4]; 0.06 ppm
  % protection (obs): 93%

## Thiamethoxam
[1]; 0.2 ppm
  Mortality (obs): 19%
[1]; 0.4 ppm
  Mortality (obs): 73%
[1]; 0.6 ppm
  Mortality (obs): 100%
[2]; 5 ppm
  % protection (obs): 0%
[2]; 70 ppm
  % protection (obs): 77%
[2]; 250 ppm
  % protection (obs): 100%
[3]; 0.2 ppm
  Mortality (obs): 44%
[3]; 0.4 ppm
  Mortality (obs): 73%
[3]; 0.6 ppm
  Mortality (obs): 87%
[4]; 30 ppm
  % protection (obs): 43%
[4]; 40 ppm
  % protection (obs): 73%
[4]; 50 ppm
  % protection (obs): 90%
